Reference: patent US4950792A, “Substituted p,p'-methylene-bis-anilines” (Lonza Ltd., priority 1985, dated 1990)
One block for each compound: values may come before it.

What was measured:
[1] = thermal stability: exotherm on heating; type: physicochemical; conditions: for exotherm of the product / time after which an exotherm could be determined: 350° C.
Protocol: Further, it was possible to establish that the compounds according to the invention are extremely temperature-stable. Thus, most of such compounds could be heated to 350° C. (comparison of MOCA around 200° C.) without the occurrence of an exotherm. The maximum possible working temperature with the new compounds consequently is substantially higher than with the usual chain-lengthening agents (comparison with MOCA, 140° C.). If this temperature is not used, at least the safe, decomposition-free working temperature range is substantially greater than the prior art compounds.

[2] = prior art; cited from earlier work

Compound: Nc1ccc(Cc2ccc(N)c(Cl)c2)cc1Cl [Amine I, 4,4'-methylene-bis(2-chloroaniline), reference compound]
temperature to which compound could be heated without the occurrence of an exotherm ([1]; comparison with MOCA): around 200 °C
carcinogenicity [2]: carcinogenicity

Compound: CCc1c(N)c(Cl)cc(Cc2cc(Cl)c(N)c(CC)c2Cl)c1Cl [Amine IV, 4,4'-Methylene-bis(2,5-dichloro-6-ethylaniline)]
exotherm of the product ([1]; time not stated): An exotherm

exotherm of the product ([1]; over 8 hours): No exotherm
Compound: CCC(C)c1cc(Cc2cc(C(C)CC)c(N)c(C(C)CC)c2Cl)c(Cl)c(C(C)CC)c1N (stereo not drawn) [Amine IX, 4,4'-Methylene-bis-(3-chloro-2,6-di-sec-butylaniline)]

Compound: CCc1cc(Cc2cc(CC)c(N)c(CC)c2Cl)c(Cl)c(CC)c1N [Amine V, 4,4'-Methylene-bis-(3-chloro-2,6-diethylaniline)]
exotherm of the product ([1]; over 8 hours): No exotherm

Compound: CCc1cc(Cc2cc(CC)c(N)c(C)c2Cl)c(Cl)c(C)c1N [Amine VI, 4,4'-Methylene-bis-(3-chloro-2-methyl-6-ethylaniline)]
exotherm of the product ([1]; over 8 hours): No exotherm

Compound: Cc1cc(Cc2cc(C)c(N)c(C(C)C)c2Cl)c(Cl)c(C(C)C)c1N [Amine VII, 4,4'-Methylene-bis-(5-chloro-2-methyl-6-isopropylaniline)]
temperature up to which no exotherm could be determined [1]: > 320 °C

Compound: Cc1c(N)c(C(C)C)cc(Cc2cc(C(C)C)c(N)c(C)c2Cl)c1Cl [Amine VIII, 4,4'-Methylene-bis(3-chloro-2-methyl-6-isopropylaniline)]
exotherm of the product ([1]; over 8 hours): No exotherm

Compound: CCC(C)c1c(N)c(C)cc(Cc2cc(C)c(N)c(C(C)CC)c2Cl)c1Cl (stereo not drawn) [Amine X, 4,4'-Methylene-bis(5-chloro-2-methyl-6-sec-butylaniline)]
temperature up to which no exotherm could be determined [1]: > 340 °C

Compound: CCc1c(N)c(C)cc(Cc2cc(C)c(N)c(CC)c2Cl)c1Cl [Example 2, 4,4'-Methylene-bis-(5-chloro-2-methyl-6-ethylaniline)]
exotherm of the product ([1]; over 8 hours): No exotherm

Compound: CC(C)c1cc(Cc2cc(C(C)C)c(N)c(C(C)C)c2Cl)c(Cl)c(C(C)C)c1N [Example 4, 4,4'-Methylene-bis(3-chloro-2,6-diisopropylaniline)]
time after which an exotherm could be determined [1]: 3 h

Compound: CCC(C)c1cc(Cc2cc(C(C)CC)c(N)c(C)c2Cl)c(Cl)c(C)c1N (stereo not drawn) [Example 9, 4,4'-Methylene-bis(3-chloro-2-methyl-6-sec-butylaniline)]
time after which an exotherm could be determined [1]: 2 h
